Six compounds from EP0032048A1, “Pyrroloylpyrrole derivatives, processes for their preparation and their use” (BEECHAM GROUP PLC, priority 1980, dated 1981) can be followed below.

The structures appear in SMILES notation.

Holding throughout (assay type): in vivo
For assay [1], the system named is phenylquinone induced mouse writhing. The assay is described as follows: phenylquinone induced mouse writhing test. The following applies: po; for inhibition at 16 mg/kg: 16 mg/kg per os. An excerpt:
In a conventional phenylquinone induced mouse writhing test, compound 1, 3 and 4 were active at the following dose per os.

The test system of assay [2] is cotton pellet induced granuloma. Description: cotton pellet induced granuloma test. The source says: In a convention cotton pellet induced granuloma test, the results were as follows: I
Assay [3] relates to carageenin induced oedema. The assay is described as follows: carrageenin induced oedema test in the rat. The following applies: for inhibitions (carrageenin oedema) versus controls: dose not given. An excerpt: In a conventional carageenin induced oedema test in the rat, the results were as follows: […]

For `Cn1cccc1C(=O)c1ccc(CC(=O)O)n1C` [Compound 1, 2-Carboxymethyl-1-methyl-5-(1'-methyl-2'-pyrroloyl)pyrrrole], the inhibition at 16 mg/kg in assay [1] came out at 90%. For the same compound, the inhibition at 10 mg/kg in assay [2] (dose 10 mg/kg, * 0.05>p>0.02) worked out at 22%. Also, the “Granuloma Wt.” value in assay [2] (dose 10 mg/kg, control 48.1) is reported as 37.6 mg. In assay [3] (dose 20 mg/kg, * 0.05>p>0.02), this compound returned an inhibition at 20 mg/kg of 19%. Besides, the “Mean Oedema” value in assay [3] (dose 20 mg/kg, control 145.3 + 10.3) is reported as 117.7 + 6.6.
The compound `Cc1cc(CC(=O)O)n(C)c1C(=O)c1cccn1C` [Compound 3, 2-Carboxymethyl-1,4-dimethyl-5-(1'-methyl-2'-pyrroloyl) pyrrole] registered an inhibition at 16 mg/kg in assay [1] of 100%. In assay [1] (separate test), this compound had an ED50 of 2.8 mg/kg. For the same compound, in assay [2] (dose 5 mg/kg, ** 0.01>p>0.001), at 5 mg/kg the inhibition was 26%. Also, the “Granuloma Wt.” value in assay [2] (dose 5 mg/kg, control 35.2) is 26.1 mg. Moreover, the inhibition at 12.5 mg/kg in assay [3] (dose 12.5 mg/kg, ** 0.01>p>0.001) was determined as 33%. In assay [3] (dose 12.5 mg/kg, control 106.0 + 6.01), the “Mean Oedema” value is reported as 70.62 + 6.31.
Consider `Cc1cc(CCC(=O)O)n(C)c1C(=O)c1cccn1C` [Compound 4, 2-(2'-Carboxyethyl)-1,4-dimethyl-5-(1"-methyl-2" pyrroloyl) pyrrole], for which the inhibition at 16 mg/kg in assay [1] stood at 60%.
On to `CC(=O)CCc1cc(C)c(C(=O)c2cccn2C)n1C` [Compound 5, 4-(1',4'-Dimethyl-5'-(1"-methyl-2"-pyrroloyl)-2'-pyrryl) butan-2-one], for which the “inhibitions (carrageenin oedema) versus controls” value in assay [3] was “significantly different from controls”.
As to `Cc1cc(CCC(C)O)n(C)c1C(=O)c1cccn1C` (stereo not drawn) [Compound 6, 4-(1',4-Dimethyl-5'-(1"-methyl-2"-pyrroloyl)-2'-pyrryl) butan-2-ol], in assay [3], the “inhibitions (carrageenin oedema) versus controls” value was “significantly different from controls”.
With `CC(=O)OC(C)CCc1cc(C)c(C(=O)c2cccn2C)n1C` (stereo not drawn) [Compound 7, 2-Acetoxy-4-(1',4'-Dimethvl-5'-(1"-methyl-2"-pvrroloyl)-2'-pyrryl)butane], the “inhibitions (carrageenin oedema) versus controls” value in assay [3] is “significantly different from controls”.
